This note sets out measurements from PubChem BioAssay AID330 (DTP/NCI, 2004).

The experiment deals with P388 leukemia ip, CD2F1 mice, survival T/C. Kind of experiment: NCI In Vivo Anticancer Drug Screen. Data for tumor model P388 Leukemia (intraperitoneal) in CD2F1 (CDF1) mice. As to conditions: endpoint: median survival time, higher = longer survival. The procedure, abridged: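 Mice carrying the transplanted tumor received test compound or vehicle. Survival was recorded in each group, and the value is the treated-group measurement divided by that of the vehicle-treated control group.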

[1] abbreviates: dose: 25.0 mg/kg/injection, schedule: Q01DX009 (ip), vehicle: saline with Tween-80.
Where [2] appears, read: dose: 100.0 mg/kg/injection, schedule: Q01DX001 (ip), vehicle: saline with Tween-80.
[3] abbreviates: dose: 200.0 mg/kg/injection, schedule: Q01DX001 (ip), vehicle: saline with Tween-80.
Setting [4] is: dose: 400.0 mg/kg/injection, schedule: Q01DX001 (ip), vehicle: saline with Tween-80.
Setting [5] is: dose: 100.0 mg/kg/injection, schedule: Q04DX003 (ip), vehicle: saline with Tween-80.
[6] abbreviates: dose: 200.0 mg/kg/injection, schedule: Q04DX003 (ip), vehicle: saline with Tween-80.
Where [7] appears, read: dose: 400.0 mg/kg/injection, schedule: Q04DX003 (ip), vehicle: saline with Tween-80.
Where [8] appears, read: dose: 50.0 mg/kg/injection, schedule: Q01DX005 (ip), vehicle: saline with Tween-80.
Where [9] appears, read: dose: 100.0 mg/kg/injection, schedule: Q01DX005 (ip), vehicle: saline with Tween-80.
The mark [10] stands for this setting: dose: 50.0 mg/kg/injection, schedule: Q01DX005 (ip), vehicle: Klucel (hydroxypropylcellulose) (HPC).
The mark [11] stands for this setting: dose: 100.0 mg/kg/injection, schedule: Q01DX005 (ip), vehicle: Klucel (hydroxypropylcellulose) (HPC).
Setting [12] is: dose: 200.0 mg/kg/injection, schedule: Q01DX005 (ip), vehicle: Klucel (hydroxypropylcellulose) (HPC).

“And” between values parts separate entries of the source, which are not always exact repeats. Equal values may be shown once. Toxic doses and inconclusive results are not listed.

For `COC1C(O)C(C)OC(OC2C(Oc3cccc4c(O)c5c(=O)oc6ccc(C)c7c(=O)oc(c34)c5c67)OC(C)C(O)C2O)C1O` (configuration not stated), the T/C is, setting by setting: (dose: 0.5 mg/kg/injection, schedule: Q01DX009 (ip), vehicle: saline with Tween-80) 108 % of control; (dose: 4.0 mg/kg/injection, schedule: Q01DX009 (ip), vehicle: saline with Tween-80) 157 % of control; (dose: 6.25 mg/kg/injection, schedule: Q01DX009 (ip), vehicle: saline with Tween-80) 152 % of control; (dose: 12.5 mg/kg/injection, schedule: Q01DX001 (sc), vehicle: Klucel (hydroxypropylcellulose) (HPC)) 100 % of control; (dose: 12.5 mg/kg/injection, schedule: Q01DX001 (sc), vehicle: other) 97 % of control; (dose: 12.5 mg/kg/injection, schedule: Q01DX005 (sc), vehicle: Klucel (hydroxypropylcellulose) (HPC)) 98 % of control. Besides, the T/C (dose: 12.5 mg/kg/injection, schedule: Q01DX005 (sc), vehicle: other) is 101 % of control; the T/C (dose: 12.5 mg/kg/injection, schedule: Q01DX009 (ip), vehicle: saline with Tween-80) was 164 % of control; the T/C (dose: 25.0 mg/kg/injection, schedule: Q01DX001 (sc), vehicle: Klucel (hydroxypropylcellulose) (HPC)) is 102 % of control; the T/C (dose: 25.0 mg/kg/injection, schedule: Q01DX001 (sc), vehicle: other) was 100 % of control; the T/C (dose: 25.0 mg/kg/injection, schedule: Q01DX005 (sc), vehicle: Klucel (hydroxypropylcellulose) (HPC)) was 97 % of control; the T/C (dose: 25.0 mg/kg/injection, schedule: Q01DX005 (sc), vehicle: other) is 92 % of control. Moreover, the T/C by setting is: under setting [1], 174 % of control; (dose: 50.0 mg/kg/injection, schedule: Q01DX001 (sc), vehicle: Klucel (hydroxypropylcellulose) (HPC)) 98 % of control; (dose: 50.0 mg/kg/injection, schedule: Q01DX001 (sc), vehicle: other) 109 % of control; (dose: 50.0 mg/kg/injection, schedule: Q01DX005 (sc), vehicle: Klucel (hydroxypropylcellulose) (HPC)) 100 % of control; (dose: 50.0 mg/kg/injection, schedule: Q01DX005 (sc), vehicle: other) 98 % of control; (dose: 50.0 mg/kg/injection, schedule: Q01DX009 (ip), vehicle: saline with Tween-80) 183 % of control. For the same compound, the T/C (dose: 100.0 mg/kg/injection, schedule: Q01DX009 (ip), vehicle: saline with Tween-80) is 171 % of control.

On to `COc1cccc2c1c(=O)c1cc([N+](=O)[O-])ccc1n2C`, for which the T/C is 100 % of control under setting [2], 97 % of control under setting [3] and 86 % of control under setting [4].

Take `Cc1ccc(CC(=O)O)cc1C`: the T/C by setting is: under setting [5], 190 % of control; under setting [6], 113 % of control; under setting [7], 113 % of control.

Take `CC(C)N(Cc1ccccc1)S(=O)(=O)c1n[nH]c(C(C)(C)C)n1`: the T/C runs as follows: under setting [8], 94 % of control; under setting [9], 86 % of control.

As for `O=S(=O)(OCCCl)c1cc(Cl)c(Cl)cc1Cl`, the T/C under setting [10] is 105 % of control, the T/C under setting [11] is 114 % of control and the T/C under setting [12] is 90 % of control.

As for `CC(=O)NC1=C(C#N)CCCC1`, the T/C (dose: 100.0 mg/kg/injection, schedule: Q04DX003 (ip), vehicle: saline) is 101 % of control; the T/C (dose: 200.0 mg/kg/injection, schedule: Q04DX003 (ip), vehicle: saline) is 104 % of control; the T/C (dose: 400.0 mg/kg/injection, schedule: Q04DX003 (ip), vehicle: saline) is 100 % of control.

Take `CC(=NC(C)(C)C)N1CCCC1`: the T/C by setting is: (dose: 12.5 mg/kg/injection, schedule: Q01DX005 (ip), vehicle: saline) 102 % of control; (dose: 25.0 mg/kg/injection, schedule: Q01DX005 (ip), vehicle: saline) 102 % of control; (dose: 50.0 mg/kg/injection, schedule: Q01DX005 (ip), vehicle: saline) 101 % of control; (dose: 100.0 mg/kg/injection, schedule: Q01DX005 (ip), vehicle: saline) 95 % of control.

Consider `C=CCC(C(=O)OC)c1ccc(Cl)cc1` (configuration not stated), for which the T/C runs as follows: (dose: 0.62 mg/kg/injection, schedule: Q01DX009 (ip), vehicle: saline) 114 % of control; (dose: 1.25 mg/kg/injection, schedule: Q01DX009 (ip), vehicle: saline) 98 % of control; (dose: 2.5 mg/kg/injection, schedule: Q01DX009 (ip), vehicle: saline) 103 % of control.

In the case of `CC(C)(C)C1=CS(=O)(=O)C(C(C)(C)C)C(O)O1` (configuration not stated), under setting [1], the T/C is 100 % of control.

Turning to `CC1=CC(=O)C2C(CC1)C2(C)C` (configuration not stated), the T/C (dose: 100.0 mg/kg/injection, schedule: Q04DX003 (ip), vehicle: saline + Tween-80 + alcohol) is 102 % of control; the T/C (dose: 200.0 mg/kg/injection, schedule: Q04DX003 (ip), vehicle: saline + Tween-80 + alcohol) is 95 % of control; the T/C (dose: 400.0 mg/kg/injection, schedule: Q04DX003 (ip), vehicle: saline + Tween-80 + alcohol) is 91 % of control.

For the compound `O=C(Cc1nc2ccc(Cl)cc2[nH]c1=O)c1ccccc1`, the T/C is, setting by setting: (dose: 60.0 mg/kg/injection, schedule: Q01DX005 (ip), vehicle: saline with Tween-80) 112 % of control; (dose: 120.0 mg/kg/injection, schedule: Q01DX005 (ip), vehicle: saline with Tween-80) 108 % of control; (dose: 240.0 mg/kg/injection, schedule: Q01DX005 (ip), vehicle: saline with Tween-80) 107 % of control.

As to `CNC(=O)Nc1nc2ccc([N+](=O)[O-])cc2[nH]1`, the T/C is 110 % of control (dose: 200.0 mg/kg/injection, schedule: Q04DX003 (oral), vehicle: saline with Tween-80); 112 % of control (dose: 400.0 mg/kg/injection, schedule: Q04DX003 (oral), vehicle: saline with Tween-80); 116 % of control and 121 % of control (dose: 800.0 mg/kg/injection, schedule: Q04DX003 (oral), vehicle: saline with Tween-80).

For `Nc1nc(N)c2cn[nH]c2n1`, the T/C runs as follows: (dose: 6.25 mg/kg/injection, schedule: Q01DX009 (ip), vehicle: saline) 95 % of control; (dose: 12.5 mg/kg/injection, schedule: Q01DX009 (ip), vehicle: saline) 93 % of control; (dose: 25.0 mg/kg/injection, schedule: Q01DX009 (ip), vehicle: saline) 100 % of control; (dose: 50.0 mg/kg/injection, schedule: Q01DX009 (ip), vehicle: saline) 104 % of control.

In the case of `CC(C)=NOC1CCCCC1O` (configuration not stated), the T/C by setting is: under setting [5], 96 % of control; under setting [6], 99 % of control; under setting [7], 106 % of control.

Regarding `CC(C)(C)N=C(Nc1ccccc1Cl)C(Cl)CSc1ccccc1` (configuration not stated), the T/C by setting is: under setting [10], 100 % of control and 102 % of control; under setting [11], 100 % of control and 98 % of control; under setting [12], 105 % of control.

Regarding `O=C(N/N=C/c1cc(Cl)ccc1O)C(=O)N/N=C/c1cc(Cl)ccc1O`, the T/C reads like this: (dose: 50.0 mg/kg/injection, schedule: Q01DX009 (ip), vehicle: water) 92 % of control; (dose: 100.0 mg/kg/injection, schedule: Q01DX009 (ip), vehicle: water) 92 % of control; (dose: 200.0 mg/kg/injection, schedule: Q01DX009 (ip), vehicle: water) 100 % of control.

`CC1=C/C(=N\NS(=O)(=O)c2ccc([N+](=O)[O-])cc2)CC(C)(C)C1`: the T/C was 87 % of control (dose: 100.0 mg/kg/injection, schedule: Q01DX009 (ip), vehicle: Klucel (hydroxypropylcellulose) (HPC)); 98 % of control (dose: 200.0 mg/kg/injection, schedule: Q01DX009 (ip), vehicle: Klucel (hydroxypropylcellulose) (HPC)); 100 % of control (dose: 400.0 mg/kg/injection, schedule: Q01DX009 (ip), vehicle: Klucel (hydroxypropylcellulose) (HPC)).

As to `CN(C)CCC(=O)Nc1nc(-c2ccc(Cl)cc2)cs1`, the T/C under setting [8] is 102 % of control; the T/C under setting [9] is 92 % of control; the T/C (dose: 200.0 mg/kg/injection, schedule: Q01DX005 (ip), vehicle: saline with Tween-80) is 96 % of control.

As to `C=C(C)C1(O)c2c(Cl)cccc2C(c2ccccc2)c2cccc(Cl)c21` (configuration not stated), the T/C is 110 % of control under setting [2], 107 % of control under setting [3] and 100 % of control under setting [4].
